Measured values from patent US12534456B2, “Heterocyclyl pyridines as novel fungicides” (Bayer Aktiengesellschaft, priority 2020, dated 2026).
Like-named read-outs stand apart in the source and are kept apart here.

How the values were obtained:
[1] = physchem; assay type: physicochemical; conditions: Table 1, compounds of formula (I); method [a]: LC-UV, acidic range, 0.1% formic acid in water and acetonitrile
Experimental: Measurement of Log P values as provided herein was performed according to EEC directive 79/831 Annex V.A8 by HPLC (High Performance Liquid Chromatography) on reversed phase columns with the following methods: • ^[a]
If more than one Log P value is available within the same method, all the values are given and separated by “+”.
Lambda-max-values were determined using UV-spectra from 200 nm to 400 nm and the peak values of the chromatographic signals

[2] = test system: Alternaria alternata; assay: Alternaria alternata in vitro cell test; assay type: cell-based; conditions: 120 h, 20 ppm of active ingredient, liquid culture with spores, 5 days incubation, spectrometric measurement of mycelium growth, read-out: efficacy (inhibition of fungal growth)
Experimental: (§1) B-5. Alternaria alternata In Vitro Cell Test • Solvent: DMSO • Culture medium: 14.6 g anhydrous D-glucose (VWR), 7.1 g Mycological Peptone (Oxoid), 1.4 g granulated Yeast Extract (Merck), QSP 1 liter • Inoculum: spores suspension • Fungicides were solubilized in DMSO and the solution used to prepare the required range of concentrations. […] A spore suspension of A. alternata was prepared and diluted to the desired spore density. Fungicides were evaluated for their ability to inhibit spore germination and mycelium growth in liquid culture assay. The compounds were added in the desired concentration to the culture medium with spores. After 5 days incubation, fungi-toxicity of compounds was determined by spectrometric measurement of mycelium growth. Inhibition of fungal growth was determined by comparing the absorbance values in wells containing the fungicides with the absorbance in control wells without fungicides.

[3] = test system: Pyricularia oryzae; assay: microbe, parasite or virus in culture; assay type: cell-based; conditions: 120 h, read-out: efficacy (inhibition of fungal growth)
[4] = test system: Colletotrichum lindemuthianum; assay: Colletotrichum lindemuthianum in vitro cell test; assay type: cell-based; conditions: 144 h, 20 ppm of active ingredient, liquid culture with spores, 6 days incubation, spectrometric measurement of mycelium growth, read-out: efficacy (inhibition of fungal growth)
Experimental: as §1, with “B-7. Colletotrichum lindemuthianum In” for “B-5. Alternaria alternata In”, “of C. lindemuthianum” for “of A. alternata”, “inhibit spores” for “inhibit spore”, “After 6” for “After 5”

[5] = test system: Septoria tritici; assay: Septoria tritici in vitro cell test; assay type: cell-based; conditions: Zymoseptoria tritici, 168 h; 20 ppm of active ingredient; liquid culture with spores, 7 days incubation, spectrometric measurement of mycelium growth; read-out: efficacy (inhibition of fungal growth)
Experimental: B-8. Septoria tritici In Vitro Cell Test • Solvent: DMSO • Culture medium: 1 g KH2PO4 (VWR), 1 g K2HPO4 (VWR), 0.5 g Urea (VWR), 3 g KNO3 (Prolabo), 10 g saccharose (VWR), 0.5 g MgSO4, 7H2O (Sigma), 0.07 g CaCl2, 2H2O (Prolabo), 0.2 mg MnSO4, H2O (Sigma), 0.6 mg CuSO4, 5H2O (Sigma), 7.9 mg ZnSO4, 7H2O (Sigma), 0.1 mg H3BO3 (Merck), 0.14 mg NaMoO4, 2H2O (Sigma), 2 mg thiamine (Sigma), 0.1 mg biotine (VWR), 4 mg FeSO4, 7H2O (Sigma), QSP 1 liter • Inoculum: spore suspension Fungicides were solubilized in DMSO and the solution used to prepare the required range of concentrations. […] A spore suspension of S. tritici was prepared and diluted to the desired spore density. Fungicides were evaluated for their ability to inhibit spore germination and mycelium growth in liquid culture assay. The compounds were added in the desired concentration to the culture medium with spores. […] Inhibition of fungal growth was determined by comparing the absorbance values in wells containing the fungicides with the absorbance in control wells without fungicides.

[6] = test system: Fusarium culmorum; assay: Fusarium culmorum in vitro cell test; assay type: cell-based; conditions: 96 h, read-out: efficacy (inhibition of fungal growth)
Experimental: B-9. Fusarium culmorum In Vitro Cell Test
• Solvent: DMSO • Culture medium: 14.6 g anhydrous D-glucose (VWR), 7.1 g Mycological Peptone (Oxoid), 1.4 g granulated Yeast Extract (Merck), QSP 1 liter • Inoculum: spore suspension
Fungicides were solubilized in DMSO and the solution used to prepare the required range of concentrations. The final concentration of DMSO used in the assay was ≤1%.
A spore suspension of F. culmorum was prepared and diluted to the desired spore density.
Fungicides were evaluated for their ability to inhibit spore germination and mycelium growth in liquid culture assay. The compounds were added in the desired concentration to the culture medium with spores. After 4 days incubation, fungi-toxicity of compounds was determined by spectrometric measurement of mycelium growth. Inhibition of fungal growth was determined by comparing the absorbance values in wells containing the fungicides with the absorbance in control wells without fungicides.

[7] = 20 ppm of active ingredient, liquid culture with spores, 4 days incubation, spectrometric measurement of mycelium growth

Question: Which results are given for `Cc1cc(C2=NOCC(Cc3ccc(Cl)cc3Cl)N2)c(Oc2cccc(C3CC3)c2F)cn1` (racemic) [Compound I-029, (5RS)-3-[5-(3-cyclopropyl-2-fluorophenoxy)-2-methylpyridin-4-yl]-5-(2,4-dichlorobenzyl)-5,6-dihydro-4H-1,2,4-oxadiazine]?
Answer: chromatographic logP [1]: 4.23; inhibition at 20 ppm [2]: 90 to 100%; inhibition at 20 ppm [3]: 90 to 100%; inhibition at 20 ppm [4]: 90 to 100%; inhibition at 20 ppm [5]: 90 to 100%; inhibition at 20 ppm [6]: 90 to 100%

Question: With `Cc1ccc(CC2CON=C(c3cc(C(F)(F)F)ncc3Oc3cccc(C(F)(F)F)c3)N2)c(C)c1` (racemic) [Compound I-034, (5RS)-5-(2,4-dimethylbenzyl)-3-{2-(trifluoromethyl)-5-[3-(trifluoromethyl)phenoxy]pyridin-4-yl}-5,6-dihydro-4H-1,2,4-oxadiazine] as the molecule, how does the chromatographic logP [1] read?
Answer: 4.89

Question: What about the inhibition at 20 ppm [2] of the same molecule?
Answer: 90 to 100%

Question: And the inhibition at 20 ppm [3]?
Answer: 90 to 100%

Question: And the inhibition at 20 ppm [4]?
Answer: 90 to 100%

Question: What about the inhibition at 20 ppm [5] of the same molecule?
Answer: 90 to 100%

Question: What about the inhibition at 20 ppm [6, 7] of the same molecule?
Answer: 70 to 79%

Question: What does the source list for `Cc1ccc(CC2CON=C(c3ccncc3Oc3cccc(C(F)(F)F)c3)N2)cc1` (racemic) [Compound I-039, (5RS)-5-(4-methylbenzyl)-3-{3-[3-(trifluoromethyl)phenoxy]pyridin-4-yl}-5,6-dihydro-4H-1,2,4-oxadiazine]?
Answer: chromatographic logP [1]: 3.47; inhibition at 20 ppm [2]: 90 to 100%; inhibition at 20 ppm [4]: 90 to 100%; inhibition at 20 ppm [5]: 80 to 89%; inhibition at 20 ppm [6]: 90 to 100%

Question: What does the source list for `COc1ccc(C2NC(c3cc(Cl)ncc3Oc3cccc(C(F)(F)F)c3)=NOC2(F)F)cc1` (racemic) [Compound I-047, (5RS)-3-{2-chloro-5-[3-(trifluoromethyl)phenoxy]pyridin-4-yl}-6,6-difluoro-5-(4-methoxyphenyl)-5,6-dihydro-4H-1,2,4-oxadiazine]?
Answer: chromatographic logP [1]: 4.14; inhibition at 20 ppm [2]: 90 to 100%; inhibition at 20 ppm [3]: 90 to 100%; inhibition at 20 ppm [4]: 90 to 100%; inhibition at 20 ppm [5]: 90 to 100%; inhibition at 20 ppm [6, 7]: 80 to 89%

Question: Which chromatographic logP [1] does the source give for `Cc1ccc(C[C@@H]2CON=C(c3cc([C@@H]4CCOC4)ncc3Oc3cccc(C(F)(F)F)c3)N2)cc1` (racemic) [Compound I-058, (5RS)-5-(4-methylbenzyl)-3-{2-[(3SR)-tetrahydrofuran-3-yl]-5-[3-(trifluoromethyl)phenoxy]pyridin-4-yl}-5,6-dihydro-4H-1,2,4-oxadiazine] here?
Answer: 3.78

Question: What about the inhibition at 20 ppm [2] of the same molecule?
Answer: 90 to 100%

Question: And the inhibition at 20 ppm [3]?
Answer: 90 to 100%

Question: What about the inhibition at 20 ppm [4] of the same molecule?
Answer: 90 to 100%

Question: And the inhibition at 20 ppm [5]?
Answer: 90 to 100%

Question: And the inhibition at 20 ppm [6]?
Answer: 90 to 100%

Question: Which results are given for `Cc1ccc(C2CON=C(c3cc(Cl)ncc3Oc3cccc(C(F)(F)F)c3)N2)s1` (racemic) [Compound I-097, rac-(5S)-3-[2-chloro-5-[3-(trifluoromethyl)phenoxy]-4-pyridyl]-5-(5-methyl-2-thienyl)-5,6-dihydro-4H-1,2,4-oxadiazine]?
Answer: chromatographic logP [1]: 3.87; inhibition at 20 ppm [2]: 90 to 100%; inhibition at 20 ppm [3]: 70 to 79%; inhibition at 20 ppm [4]: 90 to 100%; inhibition at 20 ppm [5]: 90 to 100%; inhibition at 20 ppm [6]: 90 to 100%
